From patent publication US20030236457A1, “Method of endovascular brain mapping” (priority 2002, published 2003)
Structures can show the parent of a compound that is named as a salt. Where two headings read alike, the source gives them in different places. Ends that are not written are not given here.

How the values were obtained:
[1] = tested on: rat brain; assay: Endovascular brain mapping: dye or embolic agent infused into the internal carotid artery, brains harvested to examine staining quality; format: in vivo, Sprague Dawley rats; settings: ICA infusion after blood brain barrier disruption with arabinose, dye mixed with Omnipaque
Protocol: Generally, Sprague Dawley rats were anesthetized and vascular access obtained by ventral cervical cutdown. A catheter was introduced into the common carotid artery proximal to the ICA. All other branches were clamped temporarily with aneurysm clips, permitting flow to the ICA alone. The blood brain barrier was disrupted with a solution of arabinose. […] Tantalum powder was also tested without blood brain barrier disruption. The brains were harvested for examination of the quality of staining.
Using a carotid cutdown method, the CCA was exposed and a catheter was introduced into the lumen proximal to the ICA. A ligature secured the catheter within the vessel. The external carotid artery and occipital artery were clamped, preserving flow to the ICA.
To test the use of tantalum powder, the same procedure described above was performed without disruption of the blood brain barrier. A small amount of tantalum powder suspension was then injected under fluoroscopic visualization until the right hemispheric distribution was opacified.

[2] = chronic subcutaneous injections; cited from earlier work
[3] = cited from earlier work
[4] = cited from earlier work; remark: listed apart in the source
[5] = tested on: brain parenchyma; settings: awake patient, intra-arterial infusion; cited from earlier work
[6] = Table 3, solvent or buffer named
[7] = Table 1, medium in which the fluorophore is solubilised

| Compound | Solubility [3, 6] | Solubility [3, 7] | further results |
| --- | --- | --- | --- |
| CCN(Cc1cccc(S(=O)(=O)[O-])c1)c1ccc(C(=C2C=CC(=[N+](CC)Cc3cccc(S(=O)(=O)[O-])c3)C=C2)c2ccc(O)cc2S(=O)(=O)[O-])cc1.[Na+].[Na+] [FD & C Green #3] | – | – | staining of the selected vascular distribution of the brain [1]: clearly stained both on the cortical surface; staining of the selected vascular distribution of the brain ([1]; listed as FD&C Green #3): good staining of a selective vascular distribution; induction of sarcomas [2]: induction of sarcomas |
| FLUO-RGGRLSYSRRRESTSTGR (not fully specified (N-terminus); printed as FLUO-RGGRLSYSRRRESTSTGR) [FLUO-L-SynB1] | Phosphate | – | – |
| carboxymethyl-β-cyclodextrin [CM-β-CD] | – | – | solubility in water [4]: 50 mg/mL |
| CCCCc1ccc2n1[B-](F)(F)[N+]1=C(CCCCCCCCC(=O)O)C=CC1=C2 [C4-BODIPY ® (500/510) C9, 5-butyl-4,4-difluoro-4-bora-3a,4a-diaza-s-indacene-3-nonanoic acid] | – | CDs | – |
| CCCCCCCCCCCC(=O)Nc1ccc(-c2c3ccc(=O)cc-3oc3cc(O)ccc23)c(C(=O)O)c1 [5-dodecanoylamino-fluorescein] | – | CDs | – |
| CC1=CC(C)=[N+]2C1=Cc1c(C)cc(C)n1[B-]2(F)F [Tetramethyl- BODIPY ® (505/515), 4,4-difluoro-1,3,5,7-tetramethyl-4-bora-3a,4a-diaza-s-indacene] | – | Cyclodextrins (CD) | – |
| C=CCC1(C(C)C#CCC)C(=O)N=C(O)N(C)C1=O (racemic) [Brevital®, Methohexital Sodium; 2,4,6 (1H, 3H, 5H) Pyrimidinetrione, 1-methyl-5-(1-methyl-2-pentynyl)-5-(2-propenyl)-, (±)-, monosodium salt] | – | – | duration of temporary neurological deficits after infusion [5]: resolve back to baseline within several minutes |
| FLUO-RRLSYSRRRF (not fully specified (N-terminus); printed as FLUO-RRLSYSRRRF) [FLUO-L-SynB3] | PBS | – | – |
| NCc1ccc(-c2c3ccc(=O)cc-3oc3cc(O)ccc23)c(C(=O)O)c1 [5-(aminomethyl) fluorescein, hydrochloride] | DMF | – | – |
